Measurements published in PMC8062851, “2-Methoxyestradiol and its derivatives inhibit store-operated Ca^2+ entry in T cells: Identification of a new and potent inhibitor” (Biochimica et Biophysica Acta. Molecular Cell Research, 2021).
Like-named read-outs stand apart in the source and are kept apart here.

What was measured:
[1] = system: SOCE in human Jurkat T cells; test: cells; assay type: cell-based; conditions: Ca2+ free/Ca2+ re-addition protocol, plateau 425-475 s after re-addition of 1 mM Ca2+
Experimental: (§1) Jurkat T-lymphocytes, primary human CD4^+ T cells and H1299 cells were pelleted at 450 ×g for 5 min, rat TMBP at 300 ×g for 8 min at room temperature and were resuspended in 1 ml of either standard JMP medium (Jurkat, H1299 and human CD4^+ T cells) or standard DMEM based medium containing 10% fetal bovine serum (FBS) (v/v) (TMBP cells). Resting TMBP cells (day 5–7 after re-stimulation) after the second to fifth re-stimulation were thawed from liquid nitrogen 12 to 40 h prior to Fura2-loading. After pre-incubation for 5 min at 37 °C, cells were incubated with 4 μM Fura2-AM for 15 min at 37 °C. After addition of the dye, cells were kept in the dark. Afterwards, cells and the dye were diluted by addition of 4 ml standard medium and incubated for another 15 min. Cells were washed twice in Ca^2+ buffer (140 mM NaCl, 5 mM KCl, 1 mM MgSO4, 1 mM CaCl2, 1 mM NaH2PO4, 20 mM HEPES, 5.5 mM glucose; pH 7.4 (NaOH), sterile filtered) and were diluted to a concentration of 2*10^6 cells/ml. Subsequently, cells were kept at room temperature for 20 min for de-esterification before the start of the first measurement.
In experiments using a Ca^2+ free/Ca^2+ re-addition protocol, cells were pelleted as described for Fura2 loading and Ca^2+ buffer was exchanged by 1 ml nominal Ca^2+ free buffer (140 mM NaCl, 5 mM KCl, 1 mM MgSO4, 1 mM NaH2PO4, 20 mM HEPES, 5.5 mM glucose; pH 7.4 (NaOH), sterile filtered) immediately before starting the measurement. The measurement was controlled by FL Solutions (Version 4.1, Hitachi High-Technologies Corporation). Fura2 was alternatively excited every 2 s at 340 ± 5 nm and 380 ± 5 nm, each 400 ms apart.
Finally, every measurement was calibrated using 0.1% (v/v) Triton X-100 to obtain a maximal ratio and 4 mM EGTA and 30 mM Tris to obtain a minimal ratio.
R is the ratio between F340 and F380. Rmin and Rmax are the minimal and maximal ratio, respectively, obtained by calibration. F380 min and F380 max are the minimal and maximal fluorescence intensity at 380 nm EX during the calibration. Finally, artefacts due to compound additions that usually could easily be identified and lasted about 8 s were deleted from the tracings using FL Solutions (Version 4.1, Hitachi High-Technologies Corporation). The fluorescence intensities of deleted data points were interpolated from those just before and after the deleted time points.
Estradiol, 2ME2 and 2ME2 derivatives were dissolved in DMSO at a concentration of 50 mM and stored at −20 °C for up to 6 months. For concentration-response curves, stock solution was freshly diluted with DMSO to obtain the same DMSO concentration of 0.2% (v/v) for all conditions.
The compound concentrations were then log transformed. Finally, the data were fitted to a corresponding nonlinear fit of variable slope using Prism 6 (GraphPad Software, USA).

[2] = system: SOCE in primary human CD4+ T cells; test: SOCE inhibition, Ca2+ free/Ca2+ re-addition protocol in primary human CD4+ T cells; assay type: cell-based
Experimental: Buffy coats were obtained from the blood bank of the University Medical Center Hamburg-Eppendorf (UKE) and peripheral blood mononuclear cells (PBMCs) were isolated by Biocoll density gradient centrifugation (Merck). Human CD4^+ T cells were isolated from PBMCs by negative selection using the EasySep Human CD4^+ T Cell Enrichment Kit (Stemcell Technologies) according to the manufacturer's protocol. The purity of the isolated cells was assessed by flow cytometry.
as §1
10^6 Jurkat T-lymphocytes, H1299 cells, TMBP cells or 4*10^6 primary human CD4^+ T cells were added into a 10 × 10 mm quartz glass cuvette (Hellma Analytics, Germany) that was placed into a fluorescence spectrophotometer (F-2710, Hitachi, Japan). […] Fluorescence intensity was measured at an emission wavelength of 495 ± 5 nm for both excitation wavelengths.

CCc1cc2c(cc1OS(N)(=O)=O)CC[C@@H]1[C@@H]2CC[C@]2(C)[C@@H](CC#N)CC[C@@H]12 [STX564, 2-ethyl-3-sulfamoyloxy-17β-cyanomethylestra-1,3,5(10)-triene]
IC50 ([1]; Homo sapiens, Jurkat, read-out: IC50 of SOCE inhibition, Jurkat T cells): 1200 nM | IC50 ([1]; read-out: IC50 of SOCE inhibition, Jurkat T cells): ~1000 nM | Ca2+ release upon drug addition in absence of extracellular Ca2+ ([2]; 10 μM): Ca^2+ release was observed directly upon drug addition | steady-state plateau phase of Ca2+ entry ([2]; 10 μM): re-reached after a few min | initial Ca2+ peak after Ca2+ re-addition and Ca2+ entry at later stages ([2]; 1 and 2 μM): efficiently inhibited
